Conditions: for kinematic viscosity / surface tension liquid-gas: surface light scattering; for speed of sound / thermal diffusivity: dynamic light scattering

FC(C(F)(F)F)C(F)(F)F [1,1,1,2,3,3,3-heptafluoropropane]
Conditions | Critical temperature [K] | kinematic viscosity [m2/s] | speed of sound [m/s] | surface tension liquid-gas [mN/m] | thermal diffusivity [m2/s]
253.15 K, Liquid | – | 2.88e-07 | – | 12.26 | –
263.15 K, Liquid | – | 2.54e-07 | – | 10.96 | –
273.15 K, Liquid | – | 2.28e-07 | – | 9.76 | –
283.15 K, Liquid | – | 2.05e-07 | – | 8.62 | –
293.15 K, Liquid | – | 1.83e-07 | – | 7.46 | –
293.22 K, Liquid | – | – | 437.4 | – | 3.66e-08
303.12 K, Liquid | – | – | 397.8 | – | 3.5e-08
303.15 K, Liquid | – | 1.66e-07 | – | 6.31 | –
313.15 K, Liquid | – | 1.52e-07 | – | 5.25 | –
313.2 K, Liquid | – | – | 356.8 | – | 3.26e-08
323.15 K, Liquid | – | 1.36e-07 | – | 4.23 | –
323.18 K, Liquid | – | – | 315.5 | – | 3.14e-08
332.72 K, Liquid | – | – | 275.1 | – | 2.95e-08
333.15 K, Liquid | – | 1.22e-07 | – | 3.23 | –
342.68 K, Liquid | – | – | 231.6 | – | 2.76e-08
343.15 K, Liquid | – | 1.08e-07 | – | 2.3 | –
345.66 K, Gas | – | – | 92.5 | – | 1.01e-07
348.02 K, Liquid | – | – | 208.4 | – | 2.66e-08
348.15 K, Gas | – | – | 90.6 | – | 9.3e-08
350.65 K, Gas | – | – | 89.4 | – | 8.46e-08
353.02 K, Liquid | – | – | 185.5 | – | 2.51e-08
353.15 K, Gas | – | – | 87.1 | – | 7.64e-08
353.15 K, Liquid | – | 9.43e-08 | – | 1.42 | –
355.64 K, Gas | – | – | 85.1 | – | 6.9e-08
358.09 K, Liquid | – | – | 160.8 | – | 2.36e-08
358.14 K, Gas | – | – | 82.9 | – | 6.06e-08
358.15 K, Liquid | – | 8.74e-08 | – | 1.02 | –
360.64 K, Gas | – | – | 80.4 | – | 5.25e-08
363.09 K, Liquid | – | – | 134.7 | – | 2.11e-08
363.14 K, Gas | – | – | 77.9 | – | 4.41e-08
363.15 K, Liquid | – | 8.08e-08 | – | 0.644 | –
365.63 K, Gas | – | – | 75.2 | – | 3.6e-08
365.9 K, Liquid | – | – | 118.5 | – | 1.92e-08
367.67 K, Gas | – | – | 72.8 | – | 2.91e-08
368.08 K, Liquid | – | – | 106.1 | – | 1.72e-08
368.15 K, Liquid | – | 7.34e-08 | – | 0.314 | –
369.47 K, Gas | – | – | 70.5 | – | 2.26e-08
370.15 K, Liquid | – | 7.03e-08 | – | 0.2 | –
370.2 K, Liquid | – | – | 92.6 | – | 1.42e-08
370.76 K, Gas | – | – | 68.7 | – | 1.78e-08
371.15 K, Liquid | – | 6.79e-08 | – | 0.145 | –
371.41 K, Liquid | – | – | 83.8 | – | 1.21e-08
371.96 K, Gas | – | – | 67 | – | 1.32e-08
372.15 K, Liquid | – | 6.74e-08 | – | – | –
372.19 K, Liquid | – | – | 78.2 | – | 9.91e-09
372.96 K, Gas | – | – | 65.3 | – | 9.21e-09
372.99 K, Liquid | – | – | 72.8 | – | 7.88e-09
373.5 K, Liquid | – | – | 68.3 | – | 6.11e-09
373.95 K, Gas | – | – | 63.6 | – | 4.9e-09
373.99 K, Liquid | – | – | 65.3 | – | 4.34e-09
374.45 K, Gas | – | – | – | – | 2.65e-09
374.49 K, Liquid | – | – | – | – | 2.24e-09
374.65 K, Gas | – | – | – | – | 1.73e-09
374.67 K, Liquid | – | – | – | – | 1.36e-09
Liquid, Visual observation in an unstirred cell | 374.9 | – | – | – | –
